Experiments:
[1] = tested on: HIO-derived intestinal epithelial cells; assay: Western blot of STAT1 phosphorylation in Intestine-Chip exposed to IFNγ; type: cell-based, human; conditions: 10-1000 ng/ml in lower channel for one hour
Description: (§1) FIG. 3. a) Western blot analysis showing phosphorylation of STAT1 in Chips containing either HIO-derived intestinal epithelial or Caco2 cells in response to exposure of increasing concentrations (0-1000 ng/ml) of IFNγ in the lower channel for 1 hour. Both GAPDH and STAT1 were used as loading controls. Image J analysis was used to quantify levels of phosphorylation of STAT1 compared to GAPDH b) Quantitative reverse transcription-polymerase chain reaction analyses of IDO1 and GBP1 and c) PLA2G2a, Muc4, lysozyme, Reg3γin Chips incorporating either HIO-derived epithelial or Caco2 cells in response to exposure of 10 ng/ml of IFNγ in the lower channel for 3 days. Three independent experiments were carried out; data represent mean and s.e.m; *P<0.05, **P<0.01 compared to respective untreated controls. […] Two independent experiments were carried out; data represent mean±SEM. **P<0.01. AUC, area under the curve; CTL, control; GAPDH, glyceraldehyde-3-phosphate dehydrogenase.
(§2) PBS was flushed through both the upper and lower channels and total protein was extracted in situ using cell lysis buffer (Cell Signaling cat #9803s) supplemented with protease and […] inhibitor (Sigma, # MSSAFE). Protein concentration was then determined and equal amounts of protein lysates were heat denatured and separated on a 10% mini-protean precast gel (Bio-Rad, #456-8034). […]

Caco2 cells [2] = assay: Western blot of STAT1 phosphorylation in Caco2 Chip exposed to IFNγ; type: cell-based; conditions: 10-1000 ng/ml in lower channel for one hour
Description: as §1, §2

[3] = tested on: HIO-derived epithelial cells; assay: qRT-PCR gene expression in Intestine-Chip exposed to IFNγ; type: cell-based, human
Description: as §1
(§3) PBS was flushed through both the upper and lower channels and total RNA from the Intestine-Chip was extracted in situ with the RNeasy mini kit (Qiagen, USA). cDNA was generated from 1 μg of RNA using the Omniscript RT Kit (Qiagen). qRT-PCR was performed using SYBR® Select Master Mix (Applied Biosystems) on a BioRad CFX384 Real-Time System. Primer sequences as follows:
(§4) As Caco2 cells are routinely used to assess intestinal epithelial responses and have previously been incorporated into Chips, the Inventors also included these in the Inventors' studies to directly compare the Intestine-Chip. […] Thus both cell types were incubated with 10 ng/ml of IFNγ for 3 days and assessed for upregulation of indoleamine 2 3-dioxygenase (IDO1) and guanylate binding protein 1 (GBP1).

Caco2 cells [4] = assay: qRT-PCR gene expression in Caco2 Chip exposed to IFNγ; type: cell-based; conditions: 10 ng/ml for 3 days
Description: as §1, §3, §4

[5] = 10 ng/ml in lower channel for 3 days
[6] = attenuated in comparison to HIO-epithelial cells

IFNγ: a cytokine known to be upregulated in IBD
phosphorylation of STAT1 [1]: robust phosphorylation of STAT1 | phosphorylation of STAT1 (Caco2 cells [2]): robust phosphorylation of STAT1 | Muc4 expression ([3]; 10 ng/ml for 3 days): significant upregulation | PLA2G2a expression ([3]; 10 ng/ml for 3 days): significant upregulation | Reg3γ expression ([3]; 10 ng/ml for 3 days): no differences | lysozyme expression ([3]; 10 ng/ml for 3 days): no differences | GBP1 expression vs controls [3, 5]: significant increase | IDO1 expression vs controls [3, 5]: significant increase | expression of PLA2G2a, Muc4, lysozyme, Reg3γ (Caco2 cells [4]): did not observe any significant upregulation | GBP1 expression vs controls (Caco2 cells [4]; [6]): significant upregulation | IDO1 expression vs controls (Caco2 cells [4]; [6]): significant upregulation

From patent publication US20200157508A1, “SYSTEMS AND METHODS FOR GROWTH OF INTESTINAL CELLS” (CEDARS-SINAI MEDICAL CENTER, priority 2017, published 2020)
